In US20250144067A1, “PERSONALIZED STARVATION THERAPY FOR CANCER” (Faeth Therapeutics, Inc., priority 2021, published 2025):
Counter-ions that a name gives are not always drawn.

Test system: NCI-H292 lung cancer cells
Assay: FDA drug screening, complete media vs cholesterol-free media without statin (TABLE 1)
Type: cell-based, human
Settings: Complete minus Cholesterol-free; greater than 0 enhanced anti-cancer activity, about 0 neutral, below 0 antagonist

Row | Compound | Difference
1 | COc1ccnc(C[S+]([O-])c2nc3cc(-n4cccc4)ccc3[nH]2)c1C (stereo not shown) [Ilaprazole] | −0.14

Same assay, conditions: Complete minus Cholesterol-free; greater than 0 enhanced anti-cancer activity, about 0 neutral, below 0 antagonists

Row | Compound | Difference
2 | CCN(CCO)CCCC(C)Nc1ccnc2cc(Cl)ccc12 (stereo not shown) [Hydroxychloroquine sulfate] | −0.72
3 | NC(=O)NO [Hydroxyurea] | −0.79
4 | O=C1C2CC3CC1CC(O)(C3)C2 [Idramantone] | −0.71
5 | CC#CCC(C)[C@H](O)/C=C/[C@@H]1[C@H]2C/C(=C/CCCC(=O)O)C[C@H]2C[C@H]1O (stereo partly shown) [Iloprost] | −0.58

Same assay, conditions: NCI-H292 cells in cholesterol-free media without statin

Row | Compound | Cholesterol-free
6 | NC(=O)NO [Hydroxyurea] | 1.72
7 | O=C1C2CC3CC1CC(O)(C3)C2 [Idramantone] | 1.638
8 | CC#CCC(C)[C@H](O)/C=C/[C@@H]1[C@H]2C/C(=C/CCCC(=O)O)C[C@H]2C[C@H]1O (stereo partly shown) [Iloprost] | 1.473

Same assay, conditions: NCI-H292 cells in complete media

Row | Compound | Complete
9 | CCN(CCO)CCCC(C)Nc1ccnc2cc(Cl)ccc12 (stereo not shown) [Hydroxychloroquine sulfate] | 0.895
10 | NC(=O)NO [Hydroxyurea] | 0.9327
11 | O=C1C2CC3CC1CC(O)(C3)C2 [Idramantone] | 0.9237
12 | CC#CCC(C)[C@H](O)/C=C/[C@@H]1[C@H]2C/C(=C/CCCC(=O)O)C[C@H]2C[C@H]1O (stereo partly shown) [Iloprost] | 0.8944

Same assay, conditions: NCI-H292 cells, FDA drug library screen, cholesterol-free media without statin

Row | Compound | Cholesterol-free
13 | COc1ccnc(C[S+]([O-])c2nc3cc(-n4cccc4)ccc3[nH]2)c1C (stereo not shown) [Ilaprazole] | 1.326

Same assay, conditions: NCI-H292 cells, FDA drug library screen, complete media

Row | Compound | Complete
14 | COc1ccnc(C[S+]([O-])c2nc3cc(-n4cccc4)ccc3[nH]2)c1C (stereo not shown) [Ilaprazole] | 1.19

Same assay, conditions: NCI-H292 cells, cholesterol-free media without statin

Row | Compound | Cholesterol-free
15 | CCCCCC(=O)O[C@]1(C(C)=O)CC[C@H]2[C@@H]3CCC4=CC(=O)CC[C@]4(C)[C@H]3CC[C@@]21C [Hydroxyprogesterone caproate] | 1.133
16 | OCCOCCN1CCN(C(c2ccccc2)c2ccc(Cl)cc2)CC1 (stereo not shown) [Hydroxyzine (dihydrochloride)] | 1.474

Same assay, conditions: NCI-H292 cells, complete media

Row | Compound | Complete
17 | CCCCCC(=O)O[C@]1(C(C)=O)CC[C@H]2[C@@H]3CCC4=CC(=O)CC[C@]4(C)[C@H]3CC[C@@]21C [Hydroxyprogesterone caproate] | 0.7393
18 | OCCOCCN1CCN(C(c2ccccc2)c2ccc(Cl)cc2)CC1 (stereo not shown) [Hydroxyzine (dihydrochloride)] | 1.128

Same assay, conditions: complete vs cholesterol-free media; greater than 0 enhanced anti-cancer activity, about 0 neutral, below 0 antagonists

Row | Compound | Difference
19 | CCCCCC(=O)O[C@]1(C(C)=O)CC[C@H]2[C@@H]3CCC4=CC(=O)CC[C@]4(C)[C@H]3CC[C@@]21C [Hydroxyprogesterone caproate] | −0.39
20 | OCCOCCN1CCN(C(c2ccccc2)c2ccc(Cl)cc2)CC1 (stereo not shown) [Hydroxyzine (dihydrochloride)] | −0.35

Test system: NCI-H292 lung cancer cells
Assay: FDA drug screening, complete media vs cholesterol-free media with simvastatin (TABLE 2)
Type: cell-based, human
Settings: NCI-H292 cells, FDA drug library screen, cholesterol-free media with simvastatin 0.04 μM

Row | Compound | Cholesterol-free media + simvastatin (0.04 μM)
21 | CCCCCC(=O)O[C@]1(C(C)=O)CC[C@H]2[C@@H]3CCC4=CC(=O)CC[C@]4(C)[C@H]3CC[C@@]21C [Hydroxyprogesterone caproate] | 1.029
22 | OCCOCCN1CCN(C(c2ccccc2)c2ccc(Cl)cc2)CC1 (stereo not shown) [Hydroxyzine (dihydrochloride)] | 0.6407
23 | O=C1C2CC3CC1CC(O)(C3)C2 [Idramantone] | 1.208

Same assay, conditions: NCI-H292 cells, FDA drug library screen, complete media

Row | Compound | Complete Media
24 | CCCCCC(=O)O[C@]1(C(C)=O)CC[C@H]2[C@@H]3CCC4=CC(=O)CC[C@]4(C)[C@H]3CC[C@@]21C [Hydroxyprogesterone caproate] | 0.8959
25 | O=C1C2CC3CC1CC(O)(C3)C2 [Idramantone] | 1.085

Same assay, conditions: NCI-H292 cells, FDA library drug in cholesterol-free media with simvastatin 0.04 μM

Row | Compound | Cholesterol-free media + simvastatin (0.04 μM)
26 | NC(=O)NO [Hydroxyurea] | 1.418
27 | COc1ccnc(C[S+]([O-])c2nc3cc(-n4cccc4)ccc3[nH]2)c1C (stereo not shown) [Ilaprazole] | 1.567

Same assay, conditions: NCI-H292 cells, FDA library drug in complete media

Row | Compound | Complete Media
28 | NC(=O)NO [Hydroxyurea] | 1.131
29 | COc1ccnc(C[S+]([O-])c2nc3cc(-n4cccc4)ccc3[nH]2)c1C (stereo not shown) [Ilaprazole] | 1.084

Same assay, conditions: NCI-H292 cells, cholesterol-free media with simvastatin 0.04 μM; cell growth value in FDA drug screen

Row | Compound | Cholesterol-free media + simvastatin (0.04 μM)
30 | CCN(CCO)CCCC(C)Nc1ccnc2cc(Cl)ccc12 (stereo not shown) [Hydroxychloroquine sulfate] | 0.9769

Same assay, conditions: NCI-H292 cells, complete media; cell growth value in FDA drug screen

Row | Compound | Complete Media
31 | CCN(CCO)CCCC(C)Nc1ccnc2cc(Cl)ccc12 (stereo not shown) [Hydroxychloroquine sulfate] | 1.024

Same assay, conditions: NCI-H292 cells, drug in cholesterol-free media with simvastatin 0.04 μM

Row | Compound | Cholesterol-free media + simvastatin (0.04 μM)
32 | CC#CCC(C)[C@H](O)/C=C/[C@@H]1[C@H]2C/C(=C/CCCC(=O)O)C[C@H]2C[C@H]1O (stereo partly shown) [Iloprost] | 1.189

Same assay, conditions: NCI-H292 cells, drug in complete media

Row | Compound | Complete Media
33 | CC#CCC(C)[C@H](O)/C=C/[C@@H]1[C@H]2C/C(=C/CCCC(=O)O)C[C@H]2C[C@H]1O (stereo partly shown) [Iloprost] | 0.9963

Same assay, conditions: complete media minus cholesterol-free media + simvastatin; >0 enhanced anti-cancer activity, about 0 neutral, <0 antagonist

Row | Compound | Difference
34 | CCN(CCO)CCCC(C)Nc1ccnc2cc(Cl)ccc12 (stereo not shown) [Hydroxychloroquine sulfate] | 0.05
35 | OCCOCCN1CCN(C(c2ccccc2)c2ccc(Cl)cc2)CC1 (stereo not shown) [Hydroxyzine (dihydrochloride)] | 0.53

Same assay, conditions: complete media vs cholesterol-free media + simvastatin (0.04 μM); >0 enhanced anti-cancer activity, about 0 neutral, <0 antagonist

Row | Compound | Difference
36 | CCCCCC(=O)O[C@]1(C(C)=O)CC[C@H]2[C@@H]3CCC4=CC(=O)CC[C@]4(C)[C@H]3CC[C@@]21C [Hydroxyprogesterone caproate] | −0.13
37 | NC(=O)NO [Hydroxyurea] | −0.29
38 | O=C1C2CC3CC1CC(O)(C3)C2 [Idramantone] | −0.12
39 | COc1ccnc(C[S+]([O-])c2nc3cc(-n4cccc4)ccc3[nH]2)c1C (stereo not shown) [Ilaprazole] | −0.48
40 | CC#CCC(C)[C@H](O)/C=C/[C@@H]1[C@H]2C/C(=C/CCCC(=O)O)C[C@H]2C[C@H]1O (stereo partly shown) [Iloprost] | −0.19
